Reference: the NIST ThermoML archive (doi:10.1016/j.jct.2011.06.020)

Experiment: xn = mol fraction of the nth substance listed
Details: for surface tension liquid-gas: Tensiometer with plate; for viscosity / mass density: 101 kPa, Liquid; for viscosity: Capillary tube (Ostwald / Ubbelohde) method; for mass density: Vibrating tube method

CN1CCNCC1 [N-methylpiperazine] + O
Details | mass density, 298.15 K [kg/m3] | mass density, 303.15 K [kg/m3] | mass density, 313.15 K [kg/m3] | surface tension liquid-gas, 293.15 K [mN/m] | surface tension liquid-gas, 303.15 K [mN/m] | surface tension liquid-gas, 308.15 K [mN/m] | surface tension liquid-gas, 313.15 K [mN/m] | viscosity, 298.15 K [mPa·s] | viscosity, 303.15 K [mPa·s] | viscosity, 313.15 K [mPa·s]
x1 = 0.0521 | 1001.67 | 999.31 | 994.17 | – | – | – | – | 3.324 | 2.752 | 1.987
x1 = 0.0725 | 1005.26 | 1002.36 | 996.21 | – | – | – | – | 5.564 | 4.48 | 3.048
x1 = 0.1 | – | – | – | 47.64 | 46.73 | 45.72 | 44.4 | – | – | –
x1 = 0.1039 | 1009.54 | 1005.87 | 998.34 | – | – | – | – | 10.76 | 8.223 | 5.183
x1 = 0.1998 | – | – | – | 43.4 | 42.1 | 40.74 | 39.61 | – | – | –
x1 = 0.2091 | 1001.33 | 996.94 | 988.01 | – | – | – | – | 35.24 | 25.01 | 13.66
x1 = 0.2994 | – | – | – | 38.68 | 38.07 | 37.57 | 36.37 | – | – | –
x1 = 0.3101 | 981.31 | 976.94 | 968.03 | – | – | – | – | 36.42 | 25.74 | 13.97
x1 = 0.4073 | – | – | – | 35.89 | 35.25 | 34.71 | 34.03 | – | – | –
x1 = 0.4096 | 962.21 | 957.88 | 949.09 | – | – | – | – | 23.48 | 17.12 | 9.817
x1 = 0.4983 | – | – | – | 34.37 | 33.82 | 33.32 | 32.66 | – | – | –
x1 = 0.5109 | 946.41 | 942.03 | – | – | – | – | – | 13.36 | 10.17 | 6.25
x1 = 0.5934 | – | – | – | 33.18 | 32.73 | 32.06 | 31.58 | – | – | –
x1 = 0.608 | 933.25 | 928.88 | – | – | – | – | – | 7.957 | 6.246 | 4.118
x1 = 0.6979 | – | – | – | 32.35 | 31.78 | 31.25 | 30.76 | – | – | –
x1 = 0.7065 | 922.31 | 917.92 | – | – | – | – | – | 4.893 | 4.048 | 2.846
x1 = 0.7994 | – | – | – | 31.68 | 31.16 | 30.8 | 30.4 | – | – | –
x1 = 0.8069 | 913.72 | 909.33 | – | – | – | – | – | 3.383 | 2.835 | 2.091
x1 = 0.8819 | 906.76 | 902.37 | – | – | – | – | – | 2.552 | 2.188 | 1.673
x1 = 0.8978 | – | – | – | 31.15 | 30.7 | 30.2 | 29.71 | – | – | –
x1 = 1 | 898.81 | 894.43 | – | 30.65 | 30.34 | 29.86 | 29.23 | 1.87 | 1.618 | 1.302
